Measurements: patent US8673929B2, “4,6-di- and 2,4,6-trisubstituted quinazoline derivatives and pharmaceutical compositions useful for treating viral infections” (priority 2006, dated 2014)

Tests used:
[1] = test system: Huh-7 HCV replicon cells; test: CC50 assay in the anti-HCV replicon assay (CellTiter-Glo); assay type: cell-based, human; conditions: 3 days incubation, CellTiter-Glo luminescence
Outline: (§1)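 Huh-7 cells harbouring an HCV replicon (6000/well) incubated 3 days at 37° C with 3-fold serially diluted compound (0.5% DMSO final where used). EC50 from luciferase luminescence of lysed cells; CC50 from CellTiter-Glo luminescence in parallel plates.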

[2] = target: HCV replicon; test: Anti-HCV replicon assay, EC50 (luciferase readout); assay type: cell-based; conditions: Huh-7 HCV replicon cells, 3 days incubation, luciferase luminescence
Outline: as §1

[3] = CC50 assay in the anti-HCV replicon assay (CellTiter-Glo); assay type: cell-based, human; conditions: human, Huh-7 hepatoma cells harbouring an HCV replicon; Huh-7 HCV replicon cells, 3 days incubation, CellTiter-Glo luminescence
Outline: as §1

Compound	CC50 [1] [µM]	EC50 [2] [µM]	CC50 at 3 days [3] [µM]	EC50 ([2]; Hepatitis C virus, 72 h) [µM]
CONC(=O)c1ccc(-c2ccc3nc(N)nc(OCC4CC4)c3c2)cc1 [Example 136]	10 to 20	0.3 to 1	–	–
CCOc1nc(N)nc2ccc(-c3ccc(C(=O)N4CCCCC4)cc3)cc12 [Example 148, [4-(2-amino-4-ethoxy-quinazolin-6-yl)-pheny]-piperidin-1-yl-methanone]	> 20	1 to 10	–	–
CN(C)CCCOc1nc(N)nc2ccc(-c3ccc(C(F)(F)F)cc3C(F)(F)F)cc12 [Example 226, 6-(2,4-bis-trifluoromethyl-phenyl)-4-(3-dimethyl-aminopropoxy)-quinazolin-2-ylamine]	> 20	1 to 10	–	–
CN(C)CCCOc1nc(N)nc2ccc(-c3ccc(F)c(Cl)c3)cc12 [Example 228, 6-(3-Chloro-4-fluoro-phenyl)-4-(3-dimethyl-aminopropoxy)-quinazolin-2-ylamine]	> 20	1 to 10	–	–
Nc1nc(OCCN2CCOCC2)c2cc(-c3cccs3)ccc2n1 [Example 237, 4-(2-Morpholin-4-yl-ethoxy)-6-thiophen-2-yl-quinazolin-2-ylamine]	–	–	> 20	1 to 10
Nc1nc(OCCN2CCOCC2)c2cc(-c3cc4ccccc4o3)ccc2n1 [Example 238, 6-Benzofuran-2-yl-4-(2-morpholin-4-yl-ethoxy)-quinazolin-2-ylamine]	–	–	10 to 20	1 to 10
Nc1nc(OCCN2CCOCC2)c2cc(-c3ccoc3)ccc2n1 [Example 239, 6-Furan-3-yl-4-(2-morpholin-4-yl-ethoxy)-quinazolin-2-ylamine]	–	–	10 to 20	1 to 10
Nc1nc(OCCN2CCOCC2)c2cc(-c3cc4ccccc4s3)ccc2n1 [Example 240, 6-Benzo[b]thiophen-2-yl-4-(2-morpholin-4-yl-ethoxy)-quinazolin-2-ylamine]	–	–	> 20	1 to 10
Nc1nc(OCCN2CCOCC2)c2cc(-c3ccccc3C(F)(F)F)ccc2n1 [Example 241, 4-(2-Morpholin-4-yl-ethoxy)-6-(2-trifluoromethyl-phenyl)-quinazolin-2-ylamine]	–	–	> 20	1 to 10
Nc1nc(OCCN2CCOCC2)c2cc(-c3cccc(C(F)(F)F)c3)ccc2n1 [Example 242, 4-(2-Morpholin-4-yl-ethoxy)-6-(3-trifluoromethyl-phenyl)-quinazolin-2-ylamine]	–	–	10 to 20	1 to 10
Nc1nc(OCCN2CCOCC2)c2cc(-c3cccc(F)c3F)ccc2n1 [Example 243, 6-(2,3-Difluoro-phenyl)-4-(2-morpholin-4-yl-ethoxy)-quinazolin-2-ylamine]	–	–	> 20	1 to 10
CC(C)Oc1ncnc2ccc(-c3ccsc3)cc12 [Example 244, 4-isopropoxy-6-thiophen-3-yl-quinazoline]	–	–	> 20	1 to 10
CNC(=O)c1ccc(-c2ccc3ncnc(OC(C)C)c3c2)cc1 [Example 245, 4-(4-Isopropoxy-quinazolin-6-yl)-N-methyl-benzamide]	–	–	> 20	1 to 10
CCOc1ncnc2ccc(-c3cn[nH]c3)cc12 [Example 247, 4-ethoxy-6-(1H-pyrazo-4-yl)-quinazoline]	> 20	0.3 to 1	–	–
CC(C)Oc1ncnc2ccc(-c3ccc(F)cc3)cc12 [Example 248, 6-(4-Fluorophenyl)-4-isopropoxy-quinazoline]	–	–	> 20	1 to 10
CN(C)CCNC(=O)c1ccc(-c2ccc3nc(NCc4ccc(F)cc4)nc(O[C@H]4CCOC4)c3c2)cc1 [Example 249, (S)-4-(2-(4-fluorobenzylamino)-4-(tetrahydrofuran-3-yloxy)quinazolin-6-yl)-N-(2-(dimethylamino)ethyl)benzamide]	–	–	< 10	< 0.3
CCOc1nc(NCc2ccc(S(N)(=O)=O)cc2)nc2ccc(-c3ccc(F)cc3)cc12 [Example 250, 4-{[4-Ethoxy-6-(4-fluoro-phenyl)-quinazolin-2-ylamino]-methyl}-benzenesulfonamide]	–	–	< 10	1 to 10
CCOc1nc(NCc2ccc(S(N)(=O)=O)cc2)nc2ccc(-c3ccc(F)c(NS(=O)(=O)C4CC4)c3)cc12 [Example 251, 4-{[6-(3-Cyclopropanesulfonylamino-4-fluoro-phenyl)-4-ethoxy-quinazolin-2-ylamino]-methyl}-benzenesulfonamide]	–	–	< 10	< 0.3
CCOc1nc(NCc2ccc(S(N)(=O)=O)cc2)nc2ccc(-c3cccc(S(N)(=O)=O)c3)cc12 [Example 252, 4-{[6-(3-aminosulfonyl-phenyl)-4-ethoxy-quinazolin-2-ylamino]-methyl}-benzenesulfonamide]	–	–	< 10	< 0.3
CCOc1nc(NCc2ccc(S(N)(=O)=O)cc2)nc2ccc(-c3ccc(NC(=O)N4CCCC4)cc3)cc12 [Example 253, pyrrolidine-1-carboxylic acid {4-[4-ethoxy-2-(4-sulfamoyl-benzylamino)-quinazolin-6-yl]-phenyl}-amide]	–	–	10 to 20	< 0.3
CCOc1nc(NCc2ccc(S(N)(=O)=O)cc2)nc2ccc(-c3ccc(NC(N)=O)cc3)cc12 [Example 254, 4-{[4-ethoxy-6-(4-ureido-phenyl)-quinazolin-2-ylamino]-methyl}-benzenesulfonamide]	–	–	< 10	< 0.3
CCOc1nc(NCc2ccc(S(N)(=O)=O)cc2)nc2ccc(-c3ccc(C(N)=O)cc3)cc12 [Example 255, 4-[4-Ethoxy-2-(4-sulfamoyl-benzylamino)-quinazolin-6-yl]-benzamide]	–	–	< 10	< 0.3
CCOc1nc(NCc2ccc(S(N)(=O)=O)cc2)nc2ccc(-c3ccc(C(=O)NC4CC4)cc3)cc12 [Example 256, N-Cyclopropyl-4-[4-ethoxy-2-(4-sulfamoyl-benzylamino)-auinazolin-6-yl]-benzamide]	< 10	< 0.3	–	–
CCCc1ncnc2ccc(-c3ccc(F)cc3)cc12 [Example 259, 6-(4-Fluoro-phenyl)-4-propyl-quinazoline]	–	–	> 20	1 to 10
(R)-4-[2-Amino-4-(tetrahydro-furan-3-yloxy)-quinazolin-6-yl]-N-[2-(1-methyl-pyrrolidin-2-yl)-ethyl]-benzamide [Example 221]	10 to 20	0.3 to 1	–	–
